Results reported in PubChem BioAssay AID2060601 (Molecular Pharmacology Branch, DTP, NCI, 2025).
pIC50: −log10 of the molar value.

Tested on: 874868-142-R-J2-PDC complex spheroids, growth % test/control
Assay: Anticancer human tumor 874868-142-R-J2-PDC patient-derived head and neck squamous carcinoma cell line growth inhibition [CLK]
Conditions: for pIC50: curve of first compound; for viability, T/C: stronger effect = lower value
Outline: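 Multi-cell-type spheroids combined patient-derived tumor cells with HUVEC endothelial cells and human mesenchymal stem cells. Paired agents were dosed in half-log steps down from about clinical Cmax, or from 10 microM where Cmax was unknown.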

[1] = second compound 0.0316 µM, first compound 0.0316 µM
[2] = second compound 0.0316 µM, first compound 0.1 µM
[3] = second compound 0.0316 µM, first compound 0.316 µM
[4] = second compound 0.0316 µM, first compound 1 µM
[5] = second compound 0.1 µM, first compound 0.0316 µM
[6] = second compound 0.1 µM, first compound 0.1 µM
[7] = second compound 0.1 µM, first compound 0.316 µM
[8] = second compound 0.1 µM, first compound 1 µM
[9] = second compound 0.316 µM, first compound 0.0316 µM
[10] = second compound 0.316 µM, first compound 0.1 µM
[11] = second compound 0.316 µM, first compound 0.316 µM
[12] = second compound 0.316 µM, first compound 1 µM
[13] = second compound 1 µM, first compound 0.0316 µM
[14] = second compound 1 µM, first compound 0.1 µM
[15] = second compound 1 µM, first compound 0.316 µM
[16] = second compound 1 µM, first compound 1 µM
[17] = second compound 3.16 µM, first compound 0.0316 µM
[18] = second compound 3.16 µM, first compound 0.1 µM
[19] = second compound 3.16 µM, first compound 0.316 µM
[20] = second compound 3.16 µM, first compound 1 µM
[21] = second compound 10 µM, first compound 0.0316 µM
[22] = second compound 10 µM, first compound 0.1 µM
[23] = second compound 10 µM, first compound 0.316 µM
[24] = second compound 10 µM, first compound 1 µM
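Further: spheroids exposed to the compounds for 7 days.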
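Wherever viability, T/C is given: 100% = DMSO vehicle control viability.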

SMILES: CC(=O)O[C@H]1C(=O)[C@@]2(C)[C@H]([C@H](OC(=O)c3ccccc3)[C@]3(O)C[C@H](OC(=O)[C@H](O)[C@@H](NC(=O)c4ccccc4)c4ccccc4)C(C)=C1C3(C)C)[C@]1(OC(C)=O)CO[C@@H]1C[C@@H]2O + CN1CCN(c2cc(C(=O)Nc3cc4cc(-c5cnn(C)c5)ccc4cn3)ccn2)CC1
- pIC50 (second compound 0.0316 µM): > 7.50
- pIC50 (second compound 0.1 µM): > 7.50
- pIC50 (second compound 0.316 µM): > 7.50
- pIC50 (second compound 1 µM): > 7.50
- pIC50 (second compound 3.16 µM): > 7.50
- pIC50 (second compound 10 µM): > 7.50
- viability, T/C [1]: 26.6%
- viability, T/C [2]: 18.9%
- viability, T/C [3]: 19.1%
- viability, T/C [4]: 22%
- viability, T/C (second compound 0.0316 µM, first compound 3.16 µM): 21.3%
- viability, T/C (second compound 0.0316 µM, first compound 10 µM): 27.4%
- viability, T/C [5]: 28.1%
- viability, T/C [6]: 19.6%
- viability, T/C [7]: 20%
- viability, T/C [8]: 18.1%
- viability, T/C (second compound 0.1 µM, first compound 3.16 µM): 14.7%
- viability, T/C (second compound 0.1 µM, first compound 10 µM): 27.9%
- viability, T/C [9]: 13%
- viability, T/C [10]: 15.6%
- viability, T/C [11]: 15.3%
- viability, T/C [12]: 9.43%
- viability, T/C (second compound 0.316 µM, first compound 3.16 µM): 17.7%
- viability, T/C (second compound 0.316 µM, first compound 10 µM): 17.3%
- viability, T/C [13]: 0.22%
- viability, T/C [14]: 0.23%
- viability, T/C [15]: 0.5%
- viability, T/C [16]: 0.59%
- viability, T/C (second compound 1 µM, first compound 3.16 µM): 0.23%
- viability, T/C (second compound 1 µM, first compound 10 µM): 0.27%
- viability, T/C [17]: 0.16%
- viability, T/C [18]: 0.16%
- viability, T/C [19]: 2.82%
- viability, T/C [20]: 0.21%
- viability, T/C (second compound 3.16 µM, first compound 3.16 µM): 0.18%
- viability, T/C (second compound 3.16 µM, first compound 10 µM): 0.15%
- viability, T/C [21]: 0.12%
- viability, T/C [22]: 0.18%
- viability, T/C [23]: 1.66%
- viability, T/C [24]: 0.18%
- viability, T/C (second compound 10 µM, first compound 3.16 µM): 2.53%
- viability, T/C (second compound 10 µM, first compound 10 µM): 1.6%

SMILES: CCc1c2c(nc3ccc(O)cc13)-c1cc3c(c(=O)n1C2)COC(=O)[C@]3(O)CC + CN1CCN(c2cc(C(=O)Nc3cc4cc(-c5cnn(C)c5)ccc4cn3)ccn2)CC1
- pIC50 (second compound 0.0316 µM): > 8.50
- pIC50 (second compound 0.1 µM): > 8.50
- pIC50 (second compound 0.316 µM): > 8.50
- pIC50 (second compound 1 µM): > 8.50
- pIC50 (second compound 3.16 µM): > 8.50
- pIC50 (second compound 10 µM): > 8.50
- viability, T/C (second compound 0.0316 µM, first compound 0.00316 µM): 40.3%
- viability, T/C (second compound 0.0316 µM, first compound 0.01 µM): 37.1%
- viability, T/C [1]: 26.8%
- viability, T/C [2]: 16.6%
- viability, T/C [3]: 7.13%
- viability, T/C [4]: 1.61%
- viability, T/C (second compound 0.1 µM, first compound 0.00316 µM): 31.4%
- viability, T/C (second compound 0.1 µM, first compound 0.01 µM): 24.2%
- viability, T/C [5]: 11.6%
- viability, T/C [6]: 8.69%
- viability, T/C [7]: 2.29%
- viability, T/C [8]: 0.34%
- viability, T/C (second compound 0.316 µM, first compound 0.00316 µM): 12.2%
- viability, T/C (second compound 0.316 µM, first compound 0.01 µM): 7.89%
- viability, T/C [9]: 5.11%
- viability, T/C [10]: 1.25%
- viability, T/C [11]: 0.46%
- viability, T/C [12]: 0.22%
- viability, T/C (second compound 1 µM, first compound 0.00316 µM): 0.28%
- viability, T/C (second compound 1 µM, first compound 0.01 µM): 0.16%
- viability, T/C [13]: 0.25%
- viability, T/C [14]: 0.19%
- viability, T/C [15]: 0.39%
- viability, T/C [16]: 0.11%
- viability, T/C (second compound 3.16 µM, first compound 0.00316 µM): 0.18%
- viability, T/C (second compound 3.16 µM, first compound 0.01 µM): 0.16%
- viability, T/C [17]: 0.32%
- viability, T/C [18]: 0.27%
- viability, T/C [19]: 0.19%
- viability, T/C [20]: 0.11%
- viability, T/C (second compound 10 µM, first compound 0.00316 µM): 0.07%
- viability, T/C (second compound 10 µM, first compound 0.01 µM): 3.98%
- viability, T/C [21]: 0.4%
- viability, T/C [22]: 0.15%
- viability, T/C [23]: 0.19%
- viability, T/C [24]: 0.19%
